*1 amine or outer side, *2 acyl side, *3 side chain or, on linkers, in order; H or OH if unused. Where a SMILES comes first, the peptide text is derived from it. [ ]: non-standard residue; d: D form. X1 = O=C(Cc1cccc(N=Nc2cccc(CN[*:1])c2)c1)[*:2]
Tests used:
hOX2 [1] = target: T1, hOX2 (Homo sapiens, UniProt O43614); assay: Radioligand competitive binding assay ([3H]EMPA); design: expressed in transfected cells; membranes
T1 sequence (O43614 1-444): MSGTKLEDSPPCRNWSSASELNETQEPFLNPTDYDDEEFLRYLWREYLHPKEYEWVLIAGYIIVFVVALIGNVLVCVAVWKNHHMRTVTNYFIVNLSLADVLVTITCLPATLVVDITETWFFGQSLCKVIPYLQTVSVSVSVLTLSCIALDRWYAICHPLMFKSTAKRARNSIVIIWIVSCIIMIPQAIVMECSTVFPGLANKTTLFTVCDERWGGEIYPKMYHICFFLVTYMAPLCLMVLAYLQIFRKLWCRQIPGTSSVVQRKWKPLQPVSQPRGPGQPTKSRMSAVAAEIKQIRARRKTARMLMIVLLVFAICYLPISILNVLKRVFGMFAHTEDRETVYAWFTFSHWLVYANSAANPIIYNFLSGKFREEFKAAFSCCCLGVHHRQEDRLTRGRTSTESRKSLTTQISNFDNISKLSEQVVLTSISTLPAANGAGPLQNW
Excerpt: The affinity towards OX2 was studied in a competitive radioligand binding assay on membranes derived from HEK-293 cells stably transfected with the human receptor. [^3H]EMPA, an OX2-selective orthosteric antagonist, was used as radioactive tracer to quantify residual binding after competitive displacement in the presence of the unlabeled ligands.^3 Wild-type OX-B and almorexant, a non-selective OX1 and OX2 antagonist, served as controls.^4
[^3H]EMPA (specific activity 27 Ci/mmol) and almorexant were synthesized at Janssen Research & Development LLC (San Diego, CA), while orexin-B was obtained from Bachem (Torrance, CA).
Cell membranes were prepared from a stable pool of HEK-293 cells transfected with the human OX2. Test compounds were dissolved in DMSO (10 mM stock solutions) and diluted in Dulbecco’s phosphate-buffered saline supplemented with 0.1% bovine serum albumin (BSA). Competition studies were performed by incubating the membranes with the OX2-selective antagonist [^3H]EMPA (2 nM) and different concentrations of the test compounds (7 concentrations ranging from 10^−9 to 10^−6 M). After a 60-minute incubation at rt, binding reactions were filtered to separate the excess of free ligand from the membranes. Filters were then counted for radioactivity in a scintillation counter. Nonspecific binding was determined in the presence of 10 µM almorexant.
Specific binding was determined and plotted as a function of the concentration of the compound using GraphPad Prism v8.3.1 (GraphPad Software, San Diego, USA). Data were analyzed by nonlinear regression using a one-site competition model.

hOX2 [2] = target: T1, hOX2; assay: FLIPR Tetra calcium mobilization assay, PFSK-1 cells; assay type: cell-based; settings: PFSK-1, hOX2; FLIPR; in words
Procedure: (§1) Samples of trans phOX were kept in the dark both prior to and during the whole duration of the experiment to avoid undesired photoconversion caused by environmental light. Unless differently stated, data for cis phOX were obtained by pre-illuminating the samples for 10 min with 365 nm UV light.
(§2) PFSK-1 cells were cultured in RPMI 1640 supplemented with 10% fetal bovine serum (FBS), 100 units/ml penicillin, and 100 µg/ml streptomycin. Chinese hamster ovary-K1 (CHO-K1) cells stably transfected to express human OX1 were cultured in Dulbecco’s Modified Eagle’s Medium/Nutrient Mixture F-12 Ham (DMEM/F12 1:1) medium supplemented with 10% FBS and 600 µg/ml G418. All cell lines were grown at 37 °C in 5% CO2.
(§3) Cells were plated at 50,000 cells/well in 96-well black-wall plates with poly-D-lysine-coated clear bottoms and grown overnight at 37 °C in 5% CO2. […] Calcium-mediated changes in fluorescence were monitored in a Fluorometric Imaging Plate Reader (FLIPR) Tetra instrument (Molecular Devices, USA). Fluorescence intensity was measured for 12 s to establish baseline fluorescence before addition of the test compound (20 µL/well) and further readings for a total of 155 s (excitation at 470–495 nm, detection at 515–575 nm). […]
(§4) Raw data from the FLIPR Tetra was exported as the difference between maximum and minimum fluorescence observed for each well. […] Agonist potencies (EC50) are expressed as means + SD.

hOX2 [3] = target: T1, hOX2; assay: In vitro single-cell calcium imaging, tsA201-hOX2; assay type: cell-based; design: expressed in transfected cells; host or cells: tsA201 (transformed human kidney cells), transient, co-transfected with R-GECO1; settings: 100 nM, AUC normalized to dark-adapted phOX, mean, n = 20 cells
Procedure: Transformed human kidney tsA201 cells were purchased from the European Collection of Authenticated Cell Culture. Cells were maintained at 37 °C in a humidified atmosphere with 5% CO2 and grown in Dulbecco’s Modified Eagle’s Medium/Nutrient Mixture F-12 Ham (DMEM/F12 1:1) medium (Life Technologies), supplemented with 10% FBS (Life Technologies) and 1% penicillin/streptomycin (Sigma-Aldrich).
Clones of GFP-labelled orexin receptors were kindly provided by Prof. Jyrki Kukkonen and the exact protein sequences have been reported by Putula et al.. The plasmid for the genetically encoded calcium indicator R-GECO1 was acquired from Addgene. Cells were transiently transfected with hOX1 or hOX2 receptors and R-GECO1 with X-tremeGENE 9 DNA Transfection Reagent (Roche Applied Science) following the manufacturer’s instructions. After 24 h, cells were harvested with accutase (Sigma-Aldrich) and plated onto 16-mm glass coverslips (Fisher Scientific) pre-treated with poly-L-Lysine (Sigma-Aldrich) to allow cell adhesion. Experiments were performed using pre-confluent cultures between 48 and 72 h after transfection. […]
Images were analyzed using FIJI (ImageJ). Data were analyzed and processed using GraphPad Prism v8.3.1. Statistical differences were determined by one-way ANOVA followed by Tukey’s multiple comparison post-hoc test. […]

human OX1 = target: T2, human OX1 (Homo sapiens, UniProt O43613); assay: FLIPR Tetra calcium mobilization assay, CHO-K1 cells; assay type: cell-based; settings: CHO-K1-hOX1; FLIPR; in words
T2 construct: expressed in transfected cells
T2 sequence (O43613 1-425): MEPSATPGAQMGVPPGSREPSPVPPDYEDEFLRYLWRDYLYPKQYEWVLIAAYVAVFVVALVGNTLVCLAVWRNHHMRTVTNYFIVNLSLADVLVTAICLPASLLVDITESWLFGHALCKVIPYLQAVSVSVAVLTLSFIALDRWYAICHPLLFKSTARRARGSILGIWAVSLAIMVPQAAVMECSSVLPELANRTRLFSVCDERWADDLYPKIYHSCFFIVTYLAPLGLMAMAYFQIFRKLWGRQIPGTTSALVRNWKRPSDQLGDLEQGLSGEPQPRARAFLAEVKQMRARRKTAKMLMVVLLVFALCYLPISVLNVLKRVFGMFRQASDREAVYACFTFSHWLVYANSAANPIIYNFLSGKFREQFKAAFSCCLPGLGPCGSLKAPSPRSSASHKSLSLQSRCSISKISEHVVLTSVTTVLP
Procedure: as §1, §2, §3, §4

[4] = Resistance to photofatigue; assay type: physicochemical; settings: several UV (365 nm)/blue (455 nm) cycles of 3 min; 25 µM in PBS pH 7.4, 25 °C; UPLC
Procedure: Stability to photodegradation was evaluated by exposing a phOX sample (25 µM in PBS at pH 7.4 and 25 °C) to alternating intervals (3 min each) of UV and visible light illumination (365 and 455 nm, respectively). The trans-cis isomeric distributions under different illumination conditions were measured by integrating the area of the corresponding peaks after UPLC analysis. These values were then converted to isomer percentages and plotted. After several cycles, no reduction could be observed in the isomers’ peak area, thus confirming photorexin stability to photodegradation.

OX2 = settings: in words; cited from earlier work
Excerpt: (§5) Among these, a family of neuroexcitatory peptides known as orexins (or hypocretins) is critically involved in regulating sleep and wakefulness, energy homeostasis, and reward. Orexin signaling is mediated by two closely related G protein-coupled receptors (GPCRs) – OX1 and OX2 (orexin) receptors – which are strongly conserved among mammals. While orexin cell bodies are concentrated in the hypothalamic area, orexin receptors are widely expressed in the central nervous system (CNS). Their endogenous ligands are two peptides, named ...

OX1 = settings: in words; cited from earlier work
Excerpt: as §5

OX1 receptor = settings: membrane-based binding assay; ref Langmead et al., 5 (SI); cited from earlier work
Excerpt: Although the lack of binding with all three forms of OX-B - including the native ligand control - came unexpected, similar findings had already been observed for the OX1 receptor.

[5] = design: method as in 2 sources, one per row (each row's own in cited_ref): ref 75–77 = [75]; PMID 10087007; 75. Kastin AJ Akerstrom V Orexin A but not orexin B rapidly enters brain from blood by simple diffusion J Pharmacol Exp Ther 1999 289 219 223 10087007 || [76]; PMID 12626669; doi:10.1113/jphysiol.2002.038729; 76. John J Wu M-F Kodama T Siegel JM Intravenously administered hypocretin-1 alters brain amino acid release: an in vivo microdialysis study in rats J Physiol 2003 548 557 562 10.1113/jphysiol.2002.03 || [77]; PMID 14746374; doi:10.1093/sleep/26.8.953; 77. Fujiki N Yoshida Y Ripley B Mignot E Nishino S Effects of IV and ICV hypocretin-1 (orexin A) in hypocretin receptor-2 gene mutated narcoleptic dogs and IV hypocretin-1 replacement therapy in a hyp ||| ref 75 = [75]; PMID 10087007; 75. Kastin AJ Akerstrom V Orexin A but not orexin B rapidly enters brain from blood by simple diffusion J Pharmacol Exp Ther 1999 289 219 223 10087007; settings: intravenous administration or blood-free perfusion in mammals; cited from earlier work

Molecule: CNC(=O)[C@@H](c1ccccc1)N1CCc2cc(OC)c(OC)cc2[C@@H]1CCc1ccc(C(F)(F)F)cc1 [almorexant]
- Ki (hOX2 [1]): 3 nM
- inhibition of [3H]EMPA binding (hOX2 [1]; control ligands, HEK-293-hOX2 membranes, [3H]EMPA 2 nM, 60 min rt, 10^-9 to 10^-6 M, two independent experiments in triplicates): fully displaced the radioligand

Molecule: CC[C@H](C)[C@H](NC(=O)CNC(=O)[C@H](C)NC(=O)[C@H](C)NC(=O)Cc1cccc(N=Nc2cccc(CNC(=O)CNC(=O)[C@H](CO)NC(=O)[C@H](C)NC(=O)[C@H](CCC(N)=O)NC(=O)[C@H](CC(C)C)NC(=O)[C@H](CC(C)C)NC(=O)[C@H](CCCNC(=N)N)NC(=O)[C@H](CCC(N)=O)NC(=O)[C@H](CC(C)C)NC(=O)[C@H](CCCNC(=N)N)NC(=O)CNC(=O)[C@H](CCC(N)=O)NC(=O)[C@H](CC(C)C)NC(=O)CN)c2)c1)C(=O)N[C@@H](CC(C)C)C(=O)N[C@H](C(=O)N[C@@H](CCSC)C(N)=O)[C@@H](C)O [photorexin] (H-GLQGRLQRLLQASG[X1]AAGILTM-NH2)
- potency (hOX2 [2]): high nanomolar potency
- retained activity under UV, relative to dark-adapted peptide (hOX2 [3]; 365 nm (cis-enriched)): 6%
- recovery of calcium response under blue light, relative to initial response (hOX2 [3]; 455 nm after UV): 52%
- potency (human OX1): high nanomolar potency
- degradation or bleaching over light cycles [4]: without significant degradation or bleaching

Molecule: OX-A: endogenous orexin peptide with two disulfide bridges (QPLPDCCRQKTCSCRLYELLHGAGNHAAGILTL; not fully specified; Orexin-A; UniProt O43612 34-66, looked up)
- affinity at OX2 (OX2): high affinity
- affinity at OX1 (OX1): high affinity
- occupation of OX1 orthosteric site versus [3H]SB-674042 (OX1 receptor): failed to occupy the receptor orthosteric site
- blood-brain barrier penetration [5]: penetrate the blood-brain barrier by simple diffusion
